Type in all cases: binding
Experiment [1] deals with T1, MVt (metavinculin tail domain) (Homo sapiens, UniProt P18206, A934V).
T1 construct: gene VCL; tail domain residues 879-1134; N-terminal His-tag removed by TEV; 2HR-T vector; E. coli BL21(DE3)
T1 sequence (P18206 879-1134 A934V): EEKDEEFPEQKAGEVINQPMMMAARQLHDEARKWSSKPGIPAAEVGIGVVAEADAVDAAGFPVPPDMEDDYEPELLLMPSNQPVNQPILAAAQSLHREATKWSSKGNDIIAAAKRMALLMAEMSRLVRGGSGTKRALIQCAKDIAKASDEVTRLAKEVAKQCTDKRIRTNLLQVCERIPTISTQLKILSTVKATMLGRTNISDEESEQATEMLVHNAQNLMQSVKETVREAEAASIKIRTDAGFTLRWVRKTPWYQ
As to the kind of experiment: high-speed lipid cosedimentation with LUVs, PIP2 gradient. As to conditions: 10 μM protein, PE/PC/PS LUVs with 0-30 mol% PIP2; one-site fit; pH 7.4, room temperature; the table also has a μM column, which looks inconsistent with the lipid amount. An excerpt:
(§1) high-speed lipid cosedimentation with LUVs, PIP2 gradient on MVt (metavinculin tail domain)

In experiment [2] the target is T2, MVt (metavinculin tail domain) (Homo sapiens, UniProt P18206).
T2 construct: gene VCL; tail domain residues 879-1134; N-terminal His-tag removed by TEV; 2HR-T vector; E. coli BL21(DE3)
T2 sequence (P18206 879-1134): T1 sequence (P18206 879-1134 A934V) with V56A
Described as above. The conditions noted are these: 10 μM protein, PE/PC/PS LUVs with 0-30 mol% PIP2; one-site fit; pH 7.4, room temperature; the table also has a μM column, which looks inconsistent with the lipid amount.
Source text: as §1

Experiment [3] concerns the target T3, Vt (vinculin tail domain) (Gallus gallus, UniProt P12003).
T3 construct: gene VCL; tail domain residues 879-1066; N-terminal His-tag removed by TEV; pQlinkH; E. coli BL21(DE3)
T3 sequence (P12003 879-1066 isoform P12003-1): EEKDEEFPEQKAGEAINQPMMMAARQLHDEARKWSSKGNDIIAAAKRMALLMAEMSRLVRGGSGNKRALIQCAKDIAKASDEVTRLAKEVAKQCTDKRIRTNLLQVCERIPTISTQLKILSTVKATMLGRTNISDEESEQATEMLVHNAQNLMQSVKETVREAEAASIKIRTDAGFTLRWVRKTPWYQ
Described as above. As to conditions: 10 μM protein, PE/PC/PS LUVs with 0-30 mol% PIP2; one-site fit; pH 7.4, room temperature; the table also has a μM column, which looks inconsistent with the lipid amount. The source says: high-speed lipid cosedimentation with LUVs, PIP2 gradient on Vt (vinculin tail domain)

The target of experiment [4] is T3, Vt (vinculin tail domain). As to the kind of experiment: high-speed lipid cosedimentation with LUVs, protein titration. The conditions noted are these: protein titrated at fixed 10% PIP2 in PE/PC/PS/PIP2 LUVs; Kd in protein concentration; 40 mM Hepes, 150 mM NaCl, pH 7.4, room temperature; read-out: Protein concentration (μM) / app Kd. An excerpt:
high-speed lipid cosedimentation with LUVs, protein titration on Vt (vinculin tail domain)

In experiment [5] the target is T2, MVt (metavinculin tail domain). The description is as above. The conditions noted are these: protein titrated at fixed 10% PIP2 in PE/PC/PS/PIP2 LUVs; Kd in protein concentration; 40 mM Hepes, 150 mM NaCl, pH 7.4, room temperature; read-out: Protein concentration (μM) / app Kd. An excerpt: high-speed lipid cosedimentation with LUVs, protein titration on MVt (metavinculin tail domain)

Numbering of substitutions follows the chain as printed.

On to “L-α-phosphatidylinositol-4,5-bisphosphate [PIP2]”, for which the “PIP2 (%) / app Kd” value is on record as 9.94 ± 2.52 % PIP2 (mol%) in liposomes in experiment [1], 9.20 ± 1.80 % PIP2 (mol%) in liposomes in experiment [2] and 8.89 ± 1.25 % PIP2 (mol%) in liposomes in experiment [3]. The figures for the Kd in experiment [4] and in experiment [5] were 4.94 ± 1.56 µM and 4.66 ± 1.62 µM, respectively.

Values taken from PMC12180986, “Molecular basis for differential PIP2-mediated association between vinculin and its splice isoform metavinculin” (The Journal of Biological Chemistry, 2025).
